What was measured:
[1] = target: T1, GST-WRN500-946 helicase fragment (Homo sapiens, UniProt Q14191); assay: Radiometric helicase assay with GST-WRN500-946 fragment (LOPAC hit validation); format: biochemical; details: GST-WRN500-946 20 nM; FORKR 0.5 nM; increasing concentrations
T1 construct: made in house

[2] = system: HeLa 1.2.11 cells; assay: HeLa cell proliferation assay (WST-1); format: cell-based, human; details: 50 μM, 3-day time course
Description: WRN inhibitors were diluted in DMSO to a concentration 100-fold higher than their final concentrations. U2-OS cells in culture were counted, spun down and resuspended to 35,000 cells/mL in DMEM with 10% FBS and Pen/Strep antibiotic. For each cell condition, 15 μL of DMSO or inhibitor was added to 1.5 ml of U2-OS cells in DMEM or DMEM alone. One hundred μL of each cell condition was plated in triplicate on each of four 96-well plates representing days 0–3. Ten μL of WST-1 cell proliferation reagent (Roche) was added to the day 0 plate and readings were taken 2 hr later using a plate reader set to 450 nm. WST-1 cell proliferation reagent was added to plates on days 1–3 and readings were taken after 2 hr incubation. Percent cell proliferation was normalized to cells in the presence of DMSO with the background OD450 of DMEM with each drug subtracted out. […]
Fig 9 Effects of WRN helicase inhibitors on cancer cell proliferation. (A) Cell proliferation of HeLa 1.2.11 cells treated with 50 μM NCGC00029283-03, NCGC00063279-03, NCGC00357377-01 and NSC 617145 (positive control) or vehicle (DMSO) on Day 0 and Day 3 as measured using the WST-1 cell proliferation reagent. […]

T1 sequence (Q14191 500-946): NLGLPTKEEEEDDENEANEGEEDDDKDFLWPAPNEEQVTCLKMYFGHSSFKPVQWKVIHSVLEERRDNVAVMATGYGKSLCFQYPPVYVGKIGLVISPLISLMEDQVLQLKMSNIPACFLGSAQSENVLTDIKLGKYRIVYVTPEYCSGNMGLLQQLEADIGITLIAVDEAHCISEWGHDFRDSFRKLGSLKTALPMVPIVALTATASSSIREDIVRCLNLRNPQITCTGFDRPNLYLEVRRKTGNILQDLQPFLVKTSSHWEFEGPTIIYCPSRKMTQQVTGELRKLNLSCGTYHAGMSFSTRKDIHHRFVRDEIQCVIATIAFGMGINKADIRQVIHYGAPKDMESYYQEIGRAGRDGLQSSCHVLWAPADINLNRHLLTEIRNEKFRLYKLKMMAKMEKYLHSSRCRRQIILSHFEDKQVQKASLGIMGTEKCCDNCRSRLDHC

SMILES | Inhibition of GST-WRN500-946 unwinding of radiolabeled FORKR [1] | Effect on HeLa 1.2.11 cell proliferation [2]
N#CSc1ccc2oc(C3=NCCN3)cc2c1 [NCGC00015168-04] | inhibition | –
COc1cc2nc(N3CCCN(C)CC3)nc(NC3CCN(Cc4ccccc4)CC3)c2cc1OC [NCGC00185850-03] | inhibition | –
CC(C)(CN1C(=O)C(Cl)=C(Cl)C1=O)CN1C(=O)C(Cl)=C(Cl)C1=O [NSC 617145, reference compound] | – | very potent inhibition

Reference: paper PMC6326523, “A high-throughput screen to identify novel small molecule inhibitors of the Werner Syndrome Helicase-Nuclease (WRN)” (PLoS ONE, 2019)
